These results are taken from PubChem BioAssay AID1648 (Sanford-Burnham Center for Chemical Genomics, 2009).

Active and inactive are the calls of the source. The rule behind the calls is not given here. Residues, ends and D or L forms follow the SMILES beside them.

The target of this experiment is Serine/threonine-protein kinase mTOR (Homo sapiens) (UniProt P42345). The experiment can be described thus: mTOR FRB domain ligand binding – biophysical, NMR (AID 1648). The settings on record: NMR binding to FRB domain, chemical shift.
Serine/threonine-protein kinase mTOR (Homo sapiens), sequence (P42345 2015-2114): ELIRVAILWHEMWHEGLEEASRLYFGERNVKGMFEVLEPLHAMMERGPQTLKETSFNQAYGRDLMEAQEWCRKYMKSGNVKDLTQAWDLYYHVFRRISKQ
By Kd is commonly meant the free concentration of one partner at which half of the binding sites on the other are occupied at equilibrium, for simple one-to-one binding. With `OCc1sccc1-n1cccc1`, the Kd is > 4 mM (inactive).

Take `Cc1ccc(O)c(NC(=O)c2ccco2)c1`: the Kd is > 4 mM (inactive).

Regarding `Cc1cc(NC(=O)Cc2c(F)cccc2Cl)no1`, the Kd was > 4 mM (inactive).

On to `O=C(O)C1CC(=O)N(Cc2cccs2)C1` (stereo unspecified), for which the Kd was > 4 mM (inactive).

For `CSc1ncnc2nc[nH]c12`, the Kd is > 4 mM (inactive).

`NC(=O)CC[C@H](N)C(=O)O`: the Kd was > 4 mM (inactive).

Regarding `Cc1cc(C(=O)c2c(C)nn(C)c2Cl)n(C)n1`, the Kd is > 4 mM (inactive).

`Cc1cc(C)n(-c2nc(C)nc(N)n2)n1`: the Kd was > 4 mM (inactive).

In the case of `Nc1ncnc(NC2CCS(=O)(=O)C2)c1[N+](=O)[O-]` (stereo unspecified), the Kd is > 4 mM (inactive).

Take `COc1cc(N)ccc1NC(=O)c1cccs1`: the Kd was > 4 mM (inactive).

With `CC(C)NS(=O)(=O)c1ccc(N)cc1`, the Kd is > 4 mM (inactive).

For `NCc1ccc2c(c1)OCCO2`, the Kd was > 4 mM (inactive).

In the case of `c1cncc(Nc2nc(-c3cccnc3)cs2)c1`, the Kd was > 4 mM (inactive).

As to `Cc1cc(C(=O)Nc2sc(C)c(C)c2C#N)c(C)o1`, the Kd was > 4 mM (inactive).

On to `NC(=O)C1CCN(C(=O)Nc2ccccc2)CC1`, for which the Kd was > 4 mM (inactive).

For the molecule `CC(=O)O[C@H]1C[C@@H](OC(C)=O)C(C)(C)C2CC(=O)[C@]3(C)C(CC[C@@]4(C)[C@H](c5ccoc5)OC(=O)[C@H]5O[C@]543)[C@]21C` (stereo partly specified), the Kd was > 4 mM (inactive).

As for `CC1(C)O[C@H]2CC(=O)OC[C@]23[C@H]2CC[C@@]4(C)[C@H](c5ccoc5)OC(=O)[C@H]5O[C@]54[C@]2(C)C(=O)C[C@@H]13`, the Kd was > 4 mM (inactive).

In the case of `Cc1c(C(=O)Nn2cnnc2)oc2ccccc12`, the Kd is > 4 mM (inactive).

On to `COc1ccccc1-c1noc(-c2ccncc2)n1`, for which the Kd was > 4 mM (inactive).

With `COCC(=O)Nc1cccc2ccccc12`, the Kd was > 4 mM (inactive).

For the molecule `CS(=O)(=O)Nc1cc2c3c(c1)CCN3C(=O)CC2`, the Kd was > 4 mM (inactive).

As for `CN(C)C(=O)CSc1nc(N)cc(=O)[nH]1`, the Kd is > 4 mM (inactive).

Turning to `O=C(O)CCC(=O)c1c[nH]c2ccccc12`, the Kd was > 4 mM (inactive).

For `CCC(=O)n1nc(-c2ccco2)nc1N`, the Kd is > 4 mM (inactive).

As to `c1ccc(-n2cnnc2)nc1`, the Kd is > 4 mM (inactive).

Consider `Cc1c(C)n2c(SCC(N)=O)nnc2[nH]c1=O`, for which the Kd is > 4 mM (inactive).

With `Cn1c(C(=O)O)ccc1S(N)(=O)=O`, the Kd is > 4 mM (inactive).

As to `S=C(NC1CC1)NN1CCOCC1`, the Kd was > 4 mM (inactive).

On to `NC(=O)c1ccc(C(N)=O)cc1`, for which the Kd is > 4 mM (inactive).

In the case of `C[C@@H]1[C@H]2[C@H](O[C@@H]3O[C@H](CO)[C@@H](O)[C@H](O)[C@H]3O)OC=C(C(=O)O)[C@H]2C[C@@H]1O`, the Kd is > 4 mM (inactive).

As to `CC(=O)Nc1cc(S(=O)(=O)N(C)C)ccc1Cl`, the Kd was > 4 mM (inactive).

With `Nc1ccc(CCC(=O)O)cc1`, the Kd is > 4 mM (inactive).

Consider `Clc1ccccc1-c1nc(-c2cccnc2)no1`, for which the Kd was > 4 mM (inactive).

On to `NC(=O)c1ccccc1NC(=O)c1cccnc1`, for which the Kd is > 4 mM (inactive).

As for `NC(=O)c1ccc(N=Cc2ccc[nH]2)cc1`, the Kd is > 4 mM (inactive).

For `CC(=O)Nc1nnc(-c2ccccc2)o1`, the Kd was > 4 mM (inactive).

Turning to `Cc1cc(NC(=O)c2cccc(S(C)(=O)=O)c2)no1`, the Kd is > 4 mM (inactive).

`O=C(O)CCc1ccc2c(c1)OCO2`: the Kd is > 4 mM (inactive).

For the molecule `O=C(c1ccco1)N1CCN(Cc2cccc(F)c2)CC1`, the Kd was > 4 mM (inactive).

Regarding `CC(=O)c1c(C)nc(-c2ccc(Cl)cc2Cl)n1O`, the Kd is > 4 mM (inactive).

As for `COc1ccc2[nH]cc(CCN(C)C)c2c1`, the Kd is > 4 mM (inactive).

In the case of `CC(=O)Nc1nc2c(s1)C(=O)NCCC2`, the Kd was > 4 mM (inactive).

With `Clc1ncnc2[nH]ncc12`, the Kd was > 4 mM (inactive).

Regarding `COc1cc2ccc(=O)oc2c(OC)c1OC`, the Kd was > 4 mM (inactive).

`CC(=O)NC(=S)Nc1ccc(C(C)=O)cc1`: the Kd is > 4 mM (inactive).

With `Cc1nnc(SCC(=O)NCc2ccccc2)[nH]c1=O`, the Kd is > 4 mM (inactive).

With `COc1c(F)c(F)c(-c2csc(N)n2)c(F)c1F`, the Kd is > 4 mM (inactive).

For `NC(=O)CCN1C(=O)c2ccccc2C1=O`, the Kd was > 4 mM (inactive).

On to `CC(=O)N[C@@H](CC(=O)O)C(=O)N[C@@H](CCC(=O)O)C(=O)O` (Ac-Asp-Glu-OH), for which the Kd was > 4 mM (inactive).

For the molecule `Cn1c(O)c(/C=C2\C=CC=N2)c(=O)[nH]c1=O`, the Kd is > 4 mM (inactive).

Consider `Cc1occc1C(=O)NC1CCN(C)CC1`, for which the Kd is > 4 mM (inactive).

For `Cc1cc(C(=O)N2CCN(c3ncccn3)CC2)cs1`, the Kd was > 4 mM (inactive).

`O=[n+]1cc(C2=CC=CCC2)n([O-])c2c1CCCCC2`: the Kd was > 4 mM (inactive).

Consider `c1ccc(CCc2nc(-c3cccnc3)no2)cc1`, for which the Kd is > 4 mM (inactive).

In the case of `O=C1c2ccccc2-c2ncnc3cccc1c23`, the Kd is > 4 mM (inactive).

Turning to `O[C@H]1C=C2CCN3Cc4cc5c(cc4C(C23)[C@@H]1O)OCO5` (stereo partly specified), the Kd was > 4 mM (inactive).

Consider `Cc1c(O)c(O)cc2c1CC=C1[C@@]2(C)CC[C@@]2(C)C3C[C@](C)(C(=O)O)CC[C@]3(C)CC[C@]12C` (stereo partly specified), for which the Kd was > 4 mM (inactive).

For the molecule `O=C(O)Cn1c(C(F)(F)F)nc2ccccc21`, the Kd was > 4 mM (inactive).

Regarding `CC(=O)c1c(C)n(O)c2ccc3nonc3c12`, the Kd is > 4 mM (inactive).

As to `Nc1ccc(OC(F)(F)F)cc1`, the Kd was > 4 mM (inactive).

On to `S=C(c1cccnc1)N1CCOCC1`, for which the Kd is > 4 mM (inactive).

For `CC(=O)O[C@H]1CC[C@@]2(C)C(C[C@@H](OC(C)=O)[C@@]3(C)C4=CC(=O)O[C@@H](c5ccoc5)[C@]4(C)CCC23)C1(C)C` (stereo partly specified), the Kd was > 4 mM (inactive).

As to `Cc1cc(C(=O)Nc2ccccn2)no1`, the Kd is > 4 mM (inactive).

As for `CC(C)=CCc1c2c(c3occ(-c4ccc(O)cc4)c(=O)c3c1O)C=CC(C)(C)O2`, the Kd is > 4 mM (inactive).

`COCC(=O)Nc1cc2c3c(c1)CCN3C(=O)CC2`: the Kd is > 4 mM (inactive).

As to `Nc1c(F)c(F)nc(F)c1F`, the Kd is > 4 mM (inactive).

As to `NC1Cc2ccccc2C1`, the Kd was > 4 mM (inactive).

Consider `Oc1ccccc1C(=S)N1CCCCCC1`, for which the Kd is > 4 mM (inactive).

As to `Cc1csc(CCc2nc(C)cs2)n1`, the Kd is > 4 mM (inactive).

In the case of `NC1=NC(=O)/C(=C\c2cccc(C(=O)O)c2)S1`, the Kd is > 4 mM (inactive).

In the case of `CN1C(=O)/C(=C\c2ccc[nH]2)SC1=S`, the Kd is > 4 mM (inactive).

`Nc1ccc(-c2cn3c(n2)SCC3)cc1`: the Kd is > 4 mM (inactive).

For `NC(=O)c1sc2ccccc2c1Cl`, the Kd is > 4 mM (inactive).

Consider `O=C(/C=C/c1ccc(O)c(O)c1)O[C@@H]1C[C@](O)(C(=O)O)C[C@@H](O)[C@H]1O`, for which the Kd was > 4 mM (inactive).

Turning to `Nc1cccc2nonc12`, the Kd is > 4 mM (inactive).

Consider `CN1CCN(C(=O)C2CCCNC2)CC1` (stereo unspecified), for which the Kd is > 4 mM (inactive).

In the case of `O=c1[nH]c(=O)n(-c2ccc(F)cc2)c(O)c1/C=C1/C=CC=N1`, the Kd is > 4 mM (inactive).

For the molecule `O=C(O)CCC1NCC2CC1CN1CCCCC21` (stereo unspecified), the Kd was > 4 mM (inactive).

Regarding `C[C@H]1[C@H]2CCC3C4CC=C5C[C@@H](N(C)C)CC[C@]5(C)C4CC[C@@]32CN1C` (stereo partly specified), the Kd was > 4 mM (inactive).

Turning to `COc1ccc(/C=C2/N=C(N)SC2=O)cc1`, the Kd was > 4 mM (inactive).

Take `CC(=O)N/N=C(\C)c1cccc(N)c1`: the Kd was > 4 mM (inactive).

Consider `NC1=C([N+](=O)[O-])C(=O)c2ccccc21`, for which the Kd is > 4 mM (inactive).

With `C=C1C[C@]23C[C@@]1(O)CC[C@H]2[C@@]12C=C[C@H](O)C(C)(C(=O)O1)[C@H]2[C@@H]3C(=O)O`, the Kd was > 4 mM (inactive).

On to `Cc1ccccc1-n1c(-c2ccncc2)n[nH]c1=S`, for which the Kd is > 4 mM (inactive).

In the case of `COc1ccccc1NS(=O)(=O)c1c[nH]c(=O)[nH]c1=O`, the Kd is > 4 mM (inactive).

On to `COC(=O)c1cccc(Cn2nnc3ccccc3c2=O)c1`, for which the Kd is > 4 mM (inactive).

As to `O=C1CSC2(CN3CCC2CC3)N1` (stereo unspecified), the Kd was > 4 mM (inactive).

In the case of `NC1=NCc2ccccc21`, the Kd was > 4 mM (inactive).

Turning to `CC(=O)CS(=O)(=O)c1ccccc1`, the Kd was > 4 mM (inactive).

With `O=C(Nc1nncs1)c1c(F)c(F)c(F)c(F)c1F`, the Kd is > 4 mM (inactive).

Turning to `COc1ccc(NC2=NCC(C)S2)cc1` (stereo unspecified), the Kd was > 4 mM (inactive).

In the case of `Nc1nc(-c2nc3ccccc3[nH]2)cs1`, the Kd was > 4 mM (inactive).

As for `CNC(=S)N1CCN=C1Nc1nc(C)cc(C)n1`, the Kd is > 4 mM (inactive).

For the molecule `C=C(C)CSc1nc2nc(C)cc(C)n2n1`, the Kd was > 4 mM (inactive).

For `NC(=O)c1ccccc1NC(=O)C1CC1`, the Kd is > 4 mM (inactive).

With `CC(=O)Oc1cc2c(c(C)c1OC(C)=O)CC=C1[C@@]2(C)CC[C@@]2(C)C3C[C@](C)(C(=O)O)CC[C@]3(C)CC[C@]12C` (stereo partly specified), the Kd is > 4 mM (inactive).

For `Cc1cc(C(=O)NC(C)c2ccncc2)cs1` (stereo unspecified), the Kd is > 4 mM (inactive).

Regarding `Cc1ccc2cccc(OC(=O)N3CCCC3)c2n1`, the Kd was > 4 mM (inactive).

Take `O=C1CSC(=Nc2ccc(Cl)cc2)N1`: the Kd is > 4 mM (inactive).

As to `O=C(NN1C(=O)c2ccccc2C1=O)c1cccs1`, the Kd is > 4 mM (inactive).

Regarding `Cc1ccc(CN2C3=NC(=O)CN3c3ccccc32)cc1`, the Kd was > 4 mM (inactive).
